Data taken from patent US10995091B2 (Proximagen, LLC, priority 2010, dated 2021).
Structures can show the parent of a compound that is named as a salt.

Biological target: T1, Human CXCR4 transfected HEK293 cells (Homo sapiens, UniProt P61073)
T1 construct: expressed in transfected cells; host or cells: HEK293
Test: CXCR4 functional calcium assay (calcium flux FLIPR, antagonism of SDF1 response)
Format: cell-based
Settings: CXCR4 functional activity, antagonism of SDF1 (EC50 concentration), read-out: CXCR4 fKi
Procedure, shortened: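 HEK293 cells stably transfected with human CXCR4 were loaded with 2 μM Fluo-4 AM in HBSS containing 2.5 mM probenecid, 0.1% BSA and 10 mM HEPES at pH 7.4 and 37° C. Compound was added first, then SDF1 at its EC50 concentration, and intracellular calcium fluorescence was followed on a FLIPR. Antagonist dose-response curves were fitted.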

T1 sequence (P61073 whole entry): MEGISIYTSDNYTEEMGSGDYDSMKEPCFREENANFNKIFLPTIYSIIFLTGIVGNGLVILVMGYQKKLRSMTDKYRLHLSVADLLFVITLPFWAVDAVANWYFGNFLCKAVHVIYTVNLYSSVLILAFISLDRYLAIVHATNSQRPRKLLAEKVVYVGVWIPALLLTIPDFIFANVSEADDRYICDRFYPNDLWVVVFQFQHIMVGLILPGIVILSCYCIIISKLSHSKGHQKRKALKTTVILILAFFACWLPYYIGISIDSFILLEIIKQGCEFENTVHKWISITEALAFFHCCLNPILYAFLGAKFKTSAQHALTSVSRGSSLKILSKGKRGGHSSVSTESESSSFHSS

| SMILES | Ki [µM] |
| --- | --- |
| Cc1cc(NC(=O)c2cccc(N3CCCN(C4CCN(C(C)C)CC4)CC3)n2)cc(C)n1 [Example 87, N-(2,6-Dimethylpyridin-4-yl)-6-{4-[1-(propan-2-yl)piperidin-4-yl]-1,4-diazepan-1-yl}pyridine-2-carboxamide] | < 0.02 |
| CC(C)CCNC(=O)c1cccc(N2CCCN(C3CCN(Cc4ccccc4Cl)CC3)CC2)n1 [Example 49, 6-(4-{1-[(2-Chlorophenyl)methyl]piperidin-4-yl}-1,4-diazepan-1-yl)-N-(3-methylbutyl)pyridine-2-carboxamide] | 0.1 to 0.5 |
| O=C(Nc1ccncc1)c1cccc(N2CC3CCC(C2)N(C2CCN(Cc4ccc(F)cc4Cl)CC2)C3)n1 (centres unmarked) [Example 209, 6-(6-{1-[(2-Chloro-4-fluorophenyl)methyl]piperidin-4-yl}-3,6-diazabicyclo[3.2.2]nonan-3-yl)-N-(pyridin-4-yl)pyridine-2-carboxamide] | 0.1 to 0.5 |
| CCNC(=O)c1cccc(N2CCCN(C3CCN(Cc4ccccc4Cl)CC3)CC2)n1 [Example 137, 6-(4-{1-[(2-Chlorophenyl)methyl]piperidin-4-yl}-1,4-diazepan-1-yl)-N-ethylpyridine-2-carboxamide] | 0.02 to 0.1 |
| c1ccc2c(c1)CCC2N1CCC(N2CCCN(c3nccs3)CC2)CC1 (centres unmarked) [Example 126, 1-[1-(2,3-Dihydro-1H-inden-1-yl)piperidin-4-yl]-4-(1,3-thiazol-2-yl)-1,4-diazepane] | 0.5 to 1 |
| CCc1cnc(-c2cccc(N3CCCN(C4CCN([C@@H](C)C(F)(F)F)CC4)CC3)n2)[nH]1 [Example 115, 1-[6-(4-Ethyl-1H-imidazol-2-yl)pyridine-2-yl]-4-{1-[(2S)-1,1,1-trifluoropropan-2-yl]piperidin-4-yl}-1,4-diazepane] | 0.1 to 0.5 |
| COCCNC(=O)c1cccc(N2CCCN(C3CCN(Cc4ccccc4Cl)CC3)CC2)n1 [Example 50, 6-(4-{1-[(2-Chlorophenyl)methyl]piperidin-4-yl}-1,4-diazepan-1-yl)-N-(2-methoxyethyl)pyridine-2-carboxamide] | 0.1 to 0.5 |
| CCCc1[nH]c(-c2cccc(N3CCCN(C4CCN(C(C)C)CC4)CC3)n2)nc1C [Example 123, 1-[6-(5-Methyl-4-propyl-1H-imidazol-2-yl)pyridine-2-yl]-4-[1-(propan-2-yl)piperidin-4-yl]-1,4-diazepane] | < 0.02 |
| CC(C)N1CCC(N2CCCN(c3cccc(C(=O)NCc4ccncc4)n3)CC2)CC1 [Example 36, 6-{4-[1-(Propan-2-yl)piperidin-4-yl]-1,4-diazepan-1-yl}-N-(pyridin-4-ylmethyl)pyridine-2-carboxamide] | < 0.02 |

The remaining lines, values ahead:

| Ki [µM] | SMILES |
| --- | --- |
| 0.1 to 0.5 | Clc1ccccc1CN1CCC(N2CCCN(c3ccccn3)CC2)CC1 [Example 261, 1-{1-[(2-Chlorophenyl)methyl]piperidin-4-yl}-4-(pyridin-2-yl)-1,4-diazepane] |
| 0.1 to 0.5 | CC(C)N1CCC(N2CCCN(c3cccc(-c4nc5ccccc5s4)n3)CC2)CC1 [Example 151, 2-(6-{4-[1-(Propan-2-yl)piperidin-4-yl]-1,4-diazepan-1-yl}pyridine-2-yl)-1,3-benzothiazole] |
| 0.1 to 0.5 | CC(C)N1CCC(N2CCCN(c3cccc(-c4noc(-c5cccnc5)n4)n3)CC2)CC1 [Example 166, 1-[1-(Propan-2-yl)piperidin-4-yl]-4-{6-[5-(pyridine-3-yl)-1,2,4-oxadiazol-3-yl]pyridine-2-yl}-1,4-diazepane tetrahydrochloride] |
| 0.1 to 0.5 | Cc1cc(C(=O)NCCCn2ccnc2)nc(N2CCCN(C3CCN(Cc4ccccc4Cl)CC3)CC2)n1 [Example 266, 2-(4-{1-[(2-Chlorophenyl)methyl]piperidin-4-yl}-1,4-diazepan-1-yl)-N-[3-(1H-imidazol-1-yl)propyl]-6-methylpyrimidine-4-carboxamide] |
| 0.1 to 0.5 | CC(C)NCC(O)CN1CCCN(c2cccc(C(=O)NCc3cccnc3)n2)CC1 (centres unmarked) [Example 254, 6-{4-[2-Hydroxy-3-(propan-2-ylamino)propyl]-1,4-diazepan-1-yl}-N-(pyridin-3-ylmethyl)pyridine-2-carboxamide] |
